Data from US12297178B2, “Triazole derivative and use thereof” (GYEONGGIDO BUSINESS & SCIENCE ACCELERATOR, priority 2017, dated 2025).

Tests used:
[1] = system: UCP1 (uncoupling protein-1); experiment: Adipocyte differentiation induction experiment: relative UCP1 expression by real time PCR in C3H10T1/2 cells differentiated into white adipocytes; type: cell-based; conditions: compound 20 μM; for Relative expression level of UCP1 compared to DMSO: relative to DMSO control; for Relative expression level of UCP1 compared to butein: relative to butein 20 μM control
Procedure: C3H10T1/2 cells were commercially purchased, and then differentiated into white adipocytes. The differentiated adipocytes were treated with the compounds obtained in the Preparation Examples at a concentration of 20 μM. A group treated with DMSO at a concentration of 20 μM and a group treated with butein at a concentration of 20 μM were used as a control group, respectively.
While the UCP1 (uncoupling protein-1) is contained in the mitochondria of brown adipocytes or beige adipocytes, it is difficult to find UCP1 in white adipocytes having little mitochondria. Therefore, by measuring the expression level of UCP1, it is possible to determine whether preadipocytes have differentiated into white adipocytes or otherwise brown adipocytes or beige adipocytes. The higher the expression level of UCP1, the more differentiated preadipocytes into brown adipocytes or beige adipocytes.

UCP1 = conditions: reported in US Patent Publication No. US 2015/0374643 A1; cited from earlier work

Row | Structure (SMILES) | Relative expression level of UCP1 compared to DMSO [1] | Relative expression level of UCP1 compared to butein [1] | Effect on expression level of UCP1 (UCP1)
1 | Nc1c(-c2ccc(Cl)cc2)nnn1-c1ccc(O)c(O)c1 [Compound 24, 4-(5-amino-4-(4-chlorophenyl)-1H-1,2,3-triazole-1-yl)benzene-1,2-diol] | 10.6 | 29.7 | –
2 | Cc1cc(-n2cc(-c3ccc(O)c(O)c3)nn2)ccc1O [Compound 5, 4-(1-(4-hydroxy-3-methylphenyl)-1H-1,2,3-triazole-4-yl)benzene-1.2-diol] | 2.3 | 20.6 | –
3 | Oc1ccc(-c2cn(-c3ccc(Cl)cc3)nn2)cc1O [Compound 2, 4-(1-(4-chlorophenyl)-1H-1,2,3-triazole-4-yl)benzene-1,2-diol] | 6.6 | 18.6 | –
4 | Oc1ccc(-n2cc(-c3ccc(O)c(O)c3)nn2)cc1 [Compound 4, 4-(1-(4-hydroxyphenyl)-1H-1,2,3-triazole-4-yl)benzene-1,2-diol] | 2.1 | 18.6 | –
5 | C[NH+](C)CCOc1ccc(-n2cc(-c3ccc(O)c(O)c3)nn2)cc1.[Cl-] [Compound 16, 4-(1-(4-(2-(dimethylamino)ethoxy)phenyl)-1H-1,2,3-triazole-4-yl)benzene-1,2-diol Hydrochloride] | 2.3 | 37.0 | –
6 | OCCOc1ccc(-n2cc(-c3ccc(O)c(O)c3)nn2)cc1 [Compound 15, 4-(1-(4-(2-hydroxyethoxy)phenyl)-1H-1,2,3-triazole-4-yl)benzene-1,2-diol] | 1.6 | 26.9 | –
7 | O=C(/C=C/c1ccc(O)c(O)c1)c1ccc(O)cc1O [butein] | – | – | increases the expression level of UCP1
8 | Oc1ccc(-c2cn(-c3ccc(F)cc3)nn2)cc1O [Compound 3, 4-(1-(4-fluorophenyl)-1H-1,2,3-triazole-4-yl)benzene-1,2-diol] | 12.2 | 34.1 | –
9 | COc1ccc(-n2cc(-c3ccc(O)c(O)c3)nn2)c(OC)c1 [Compound 1, 4-(1-(2,4-dimethoxyphenyl)-1H-1,2,3-triazole-4-yl)benzene-1.2-diol] | 3.5 | 12.2 | –
